Experimental data published in ChEMBL document CHEMBL5226312, “Structural Evolution and Translational Potential for Agonists and Antagonists of Endosomal Toll-like Receptors” (J Med Chem, 2021).

Tests used:
Splenocyte = test: Induction IFN production in C3H/HeJ mouse Splenocytes measured after 18 hrs; assay type: functional; conditions: read-out: MEC
[1] = Antagonist activity at mouse CpG-oligonucleotide in mouse WEHI-231 cells assessed as inhibition of CpG-oligonucleotide induced thymidine uptake preincubated for 16 hrs followed by 3H-thymidine addition and measured after 4 hrs in presence of anti-serum IgM by radioactivity analysis; assay type: cell-based; conditions: WEHI231
Toll-like receptor 8 = molecular target: T1, Toll-like receptor 8 (Homo sapiens, UniProt Q9NR97); test: Agonist activity at human TLR8 stably expressed in human HEK-Blue hTLR8 cells assessed as activation of NFkappaB by SAP reporter gene based spectrophotometric assay; assay type: cell-based
T1 sequence (Q9NR97 whole entry): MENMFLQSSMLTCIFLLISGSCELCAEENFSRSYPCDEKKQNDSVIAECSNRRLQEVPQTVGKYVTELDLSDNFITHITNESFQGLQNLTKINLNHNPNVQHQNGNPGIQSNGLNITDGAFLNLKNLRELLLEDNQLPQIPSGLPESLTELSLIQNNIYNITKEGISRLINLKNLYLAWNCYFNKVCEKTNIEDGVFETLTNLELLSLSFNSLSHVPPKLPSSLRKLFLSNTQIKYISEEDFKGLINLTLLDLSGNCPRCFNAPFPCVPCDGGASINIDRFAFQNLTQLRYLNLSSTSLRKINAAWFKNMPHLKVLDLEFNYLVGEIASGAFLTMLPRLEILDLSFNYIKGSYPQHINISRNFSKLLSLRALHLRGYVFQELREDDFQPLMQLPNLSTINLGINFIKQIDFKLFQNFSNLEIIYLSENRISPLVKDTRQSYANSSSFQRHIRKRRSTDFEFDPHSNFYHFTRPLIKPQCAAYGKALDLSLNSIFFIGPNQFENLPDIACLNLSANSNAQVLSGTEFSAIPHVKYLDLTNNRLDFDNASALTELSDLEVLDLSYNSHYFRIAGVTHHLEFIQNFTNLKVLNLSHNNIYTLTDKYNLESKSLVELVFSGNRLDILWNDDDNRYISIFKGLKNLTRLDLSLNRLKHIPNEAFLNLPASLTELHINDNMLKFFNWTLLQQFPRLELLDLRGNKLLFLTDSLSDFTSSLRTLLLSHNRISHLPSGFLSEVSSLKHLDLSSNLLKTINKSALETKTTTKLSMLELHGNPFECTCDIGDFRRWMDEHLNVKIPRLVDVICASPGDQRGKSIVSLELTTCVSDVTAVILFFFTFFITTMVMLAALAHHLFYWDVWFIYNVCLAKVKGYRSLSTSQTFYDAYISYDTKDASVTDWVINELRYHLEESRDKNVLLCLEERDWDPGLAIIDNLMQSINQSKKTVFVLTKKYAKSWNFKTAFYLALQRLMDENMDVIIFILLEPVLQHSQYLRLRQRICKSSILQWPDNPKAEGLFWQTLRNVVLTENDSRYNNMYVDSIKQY

[2] = Antagonist activity at monkey TLR7 expressed in Drosophila S2 cells by ITC analysis; set-up: species or system Macaca mulatta
[3] = Antagonist activity at mouse CpG-oligonucleotide in mouse WEHI-231 cells assessed as inhibition of CpG-oligonucleotide induced thymidine uptake in presence of anti-serum IgM; assay type: cell-based; conditions: WEHI231
Toll-like receptor 7 = molecular target: T2, Toll-like receptor 7 (Homo sapiens, UniProt Q9NYK1); test: Agonist activity at human TLR7
T2 sequence (Q9NYK1 whole entry): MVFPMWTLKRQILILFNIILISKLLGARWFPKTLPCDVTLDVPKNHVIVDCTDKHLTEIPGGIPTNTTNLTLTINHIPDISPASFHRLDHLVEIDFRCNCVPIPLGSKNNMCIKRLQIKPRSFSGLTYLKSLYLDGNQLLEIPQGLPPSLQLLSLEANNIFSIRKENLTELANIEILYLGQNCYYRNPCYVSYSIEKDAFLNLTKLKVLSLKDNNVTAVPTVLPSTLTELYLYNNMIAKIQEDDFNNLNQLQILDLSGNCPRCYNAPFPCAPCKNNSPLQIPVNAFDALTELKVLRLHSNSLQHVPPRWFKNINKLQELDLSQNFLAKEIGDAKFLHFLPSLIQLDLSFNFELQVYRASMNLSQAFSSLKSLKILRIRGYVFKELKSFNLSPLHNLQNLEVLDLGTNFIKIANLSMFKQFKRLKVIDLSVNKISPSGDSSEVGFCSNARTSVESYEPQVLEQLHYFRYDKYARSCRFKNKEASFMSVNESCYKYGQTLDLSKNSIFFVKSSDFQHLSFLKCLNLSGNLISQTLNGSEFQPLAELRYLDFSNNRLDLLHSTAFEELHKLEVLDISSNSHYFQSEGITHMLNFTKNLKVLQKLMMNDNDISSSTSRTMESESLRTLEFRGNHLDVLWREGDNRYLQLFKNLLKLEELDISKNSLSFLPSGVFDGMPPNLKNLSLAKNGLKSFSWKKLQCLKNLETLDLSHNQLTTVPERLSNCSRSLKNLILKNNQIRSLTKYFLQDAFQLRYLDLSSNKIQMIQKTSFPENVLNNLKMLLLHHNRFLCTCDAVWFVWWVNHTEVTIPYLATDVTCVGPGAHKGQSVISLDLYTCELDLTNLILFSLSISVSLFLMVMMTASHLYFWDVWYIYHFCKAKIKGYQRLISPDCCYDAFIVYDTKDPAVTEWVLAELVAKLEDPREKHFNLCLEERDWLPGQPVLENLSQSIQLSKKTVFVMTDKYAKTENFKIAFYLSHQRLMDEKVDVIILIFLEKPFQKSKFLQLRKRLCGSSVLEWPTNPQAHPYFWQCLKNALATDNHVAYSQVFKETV

Compound `CCCCOc1nc(N)c2[nH]c(=O)n(Cc3ccccc3)c2n1` has a minimal effective concentration (Splenocyte) of 0.001 µM.

`CN(C)CCNc1cc(-c2ccc(CN3CCN(C)CC3)cc2)nc2ccccc12` gave an EC50 [1] of 7.07 nM.

Work on `CN(C)CCNc1cc(-c2ccc(N3CCN(C)CC3)cc2)nc2ccccc12` yielded an EC50 [1] of 0.76 nM.

`CN1CCN(Cc2ccc(-c3cc(N4CCN(C)CC4)c4ccccc4n3)cc2)CC1` showed an EC50 [1] of 58 nM.

For `CCCCOc1nc(N)c2nc(S)n(Cc3ccccc3)c2n1`, the minimal effective concentration (Splenocyte) was 0.001 µM.

`CCCCCc1nc(N)c2[nH]c(=O)n(Cc3ccccc3)c2n1` showed a minimal effective concentration (Splenocyte) of 0.01 µM.

In the case of `CCCCc1nc2c(N)nc3ccccc3c2s1`, the EC50 (Toll-like receptor 8) is reported as 410 nM.

For `CCOc1nc(C)c2nc(-c3cncc(F)c3)n(Cc3ccc(CN4C[C@H]5C[C@@H]4CN5C)cc3)c2n1`, the IC50 [2] was 25 nM.

For `CCOc1nc(N)c2nc(-c3cncc(F)c3)n(Cc3ccc(CN4C[C@H]5C[C@@H]4CN5C)cc3)c2n1`, the IC50 [2] was 25 nM.

With `CN(C)CCNc1cc(-c2ccc3ccccc3c2)nc2ccccc12` the EC50 [3] was 9.1 nM.

With `CN1CCN(Cc2cc(Nc3cc(-c4ccc5ccccc5c4)nc4ccccc34)cc(CN3CCN(C)CC3)c2O)CC1` the EC50 [3] was 0.24 nM.

For `CCN(CC)CCCC(C)Nc1cc(-c2ccccc2)nc2ccccc12` (centres undefined), the EC50 [3] was 51.3 nM.

In the case of `CCN(CC)CCCC(C)Nc1ccnc2cc(Cl)ccc12` (centres undefined) [CHLOROQUINE], the EC50 [3] is reported as 110 nM.

`CC(C)Cn1cnc2c(N)nc3ccccc3c21` [IMIQUIMOD] gave an EC50 (Toll-like receptor 7) of 2210 nM.
